Structures are written as SMILES.

Usually IC50 stands for the concentration that inhibits the measured activity by half. A higher IC50 goes with a need for much substance.

T1 sequence (J9SQF3 1-1709 isoform J9SQF3-12): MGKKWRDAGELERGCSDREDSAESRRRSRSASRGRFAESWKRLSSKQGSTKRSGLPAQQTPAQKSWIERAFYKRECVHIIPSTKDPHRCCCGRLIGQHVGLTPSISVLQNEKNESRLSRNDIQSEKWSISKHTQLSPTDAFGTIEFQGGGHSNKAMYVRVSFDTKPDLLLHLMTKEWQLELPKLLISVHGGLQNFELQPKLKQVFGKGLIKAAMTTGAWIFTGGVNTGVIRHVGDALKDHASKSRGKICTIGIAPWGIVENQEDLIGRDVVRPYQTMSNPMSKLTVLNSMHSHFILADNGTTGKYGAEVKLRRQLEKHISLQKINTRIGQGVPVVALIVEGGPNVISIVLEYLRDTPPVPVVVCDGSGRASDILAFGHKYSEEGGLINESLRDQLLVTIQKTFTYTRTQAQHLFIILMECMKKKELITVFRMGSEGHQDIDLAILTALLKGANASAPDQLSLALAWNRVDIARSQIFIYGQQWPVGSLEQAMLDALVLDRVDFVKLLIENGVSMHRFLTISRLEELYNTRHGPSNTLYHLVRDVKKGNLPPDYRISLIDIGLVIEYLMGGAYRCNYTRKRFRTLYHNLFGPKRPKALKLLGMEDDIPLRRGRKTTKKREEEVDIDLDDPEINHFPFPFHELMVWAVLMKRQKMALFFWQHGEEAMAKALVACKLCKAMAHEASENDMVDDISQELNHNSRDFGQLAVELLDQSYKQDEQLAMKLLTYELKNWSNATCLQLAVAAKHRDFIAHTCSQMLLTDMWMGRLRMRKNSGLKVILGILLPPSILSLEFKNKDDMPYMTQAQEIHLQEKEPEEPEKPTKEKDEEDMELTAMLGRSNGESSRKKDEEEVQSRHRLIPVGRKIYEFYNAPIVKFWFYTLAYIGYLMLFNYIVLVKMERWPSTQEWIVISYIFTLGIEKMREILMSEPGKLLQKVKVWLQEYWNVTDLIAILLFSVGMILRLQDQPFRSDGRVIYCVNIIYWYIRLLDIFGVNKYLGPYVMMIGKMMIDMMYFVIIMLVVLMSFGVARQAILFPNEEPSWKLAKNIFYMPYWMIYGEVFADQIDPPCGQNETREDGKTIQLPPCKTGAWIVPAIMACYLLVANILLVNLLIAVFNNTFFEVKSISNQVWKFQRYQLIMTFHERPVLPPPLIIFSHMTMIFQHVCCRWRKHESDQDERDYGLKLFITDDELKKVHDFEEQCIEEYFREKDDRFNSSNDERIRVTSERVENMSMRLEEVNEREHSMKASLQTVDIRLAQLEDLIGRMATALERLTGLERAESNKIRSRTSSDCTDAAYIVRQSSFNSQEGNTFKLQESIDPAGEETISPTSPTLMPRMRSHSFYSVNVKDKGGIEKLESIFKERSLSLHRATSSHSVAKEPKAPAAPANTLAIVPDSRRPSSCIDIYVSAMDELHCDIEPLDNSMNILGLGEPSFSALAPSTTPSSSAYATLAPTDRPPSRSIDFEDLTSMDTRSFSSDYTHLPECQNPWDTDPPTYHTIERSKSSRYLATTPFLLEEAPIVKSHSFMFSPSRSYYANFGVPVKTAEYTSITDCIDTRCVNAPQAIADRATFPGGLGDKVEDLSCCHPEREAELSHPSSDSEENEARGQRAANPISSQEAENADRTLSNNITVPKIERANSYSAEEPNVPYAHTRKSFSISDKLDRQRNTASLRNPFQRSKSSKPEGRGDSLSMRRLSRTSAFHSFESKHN

The experiment addresses T1, mouse TRPM3α2 (mTRPM3) ion channel (Mus musculus, UniProt J9SQF3).
T1 construct: expressed in transfected cells; host or cells: flip-in HEK293
The experiment can be described thus: TRPM3 ion channel driven Ca2+ uptake, Fluo-4 AM assay, mTRPM3alpha2 overexpressing flip-in HEK293 cells stimulated with pregnenolone sulfate (50 μM). The note with it: mTRPM3 overexpressing HEK293 cells stimulated with pregnenolone sulfate (50 μM), activity ranges A, B, C. It is filed as cell-based. The procedure: Monitoring the TRPM3 Ion Channel Driven Ca2+ Uptake.
In order to monitor the inhibition of the mouse TRPM3α2 (mTRPM3) ion channel by the compounds of the invention, a cellular system making use of an mTRPM3alpha2 or hTRPM3 overexpressing cell line (flip-in HEK293) was used. The TRPM3 channel was stimulated/opened with Pregnenolone sulfate (PS) (50 μM) which results in Ca^2+ influx.
For mTRPM3, the intracellular Ca^2+ was measured with a Calcium responsive dye, Fluor-4 AM ester (Invitrogen). Cells were cultured until a confluence of 80-90%, washed with Versene (Invitrogen) and detached from the surface by a short incubation with 0.05% Trypsin (Invitrogen). The trypsination process was stopped by the addition of complete cell culture medium (DMEM, glutamax, 10% FCS, NEAA, Pen-Strep). Cells were collected and resuspended in Krebs buffer without Calcium at RT.
Prior the cell seeding (±2000 cells/well into a black, 384 well plate (Greiner)) the diluted compound was added in the assay plate, together with the PS dissolved in Krebs buffer containing Calcium. […] Directly after cell addition the plates were read on an Envision fluorescence reader (Perkin Elmer) by an Excitation of 485 nm and emission at 535 nm.
Channel inhibition was calculated compared to a non-PS stimulated control versus a condition stimulated with PS (50 μM) with vehicle. The ability of the compounds of the invention to inhibit this activity was determined as: Percentage inhibition=[1−((RFU determined for sample with test compound present−RFU determined for sample with positive control inhibitor) divided by (RFU determined in the presence of vehicle−RFU determined for sample with positive control inhibitor))]*100.
The activities of the Example compounds cpd 001-262 tested are depicted in the table below. All tested compounds show an activity in the Fluo-4 AM assay. The activity ranges A, B and C refer to IC50 values in the Fluo-4 AM assay as follows: “A”: IC50<1 μM; “B”: 1 μM≤IC50≤20 μM and “C”: IC50>20 μM.
Regarding `Cn1nc2ccc(OCc3ccccc3)cc2c1C(=O)NC1CNCC1(F)F` (single isomer, unassigned) [Cpd 002 - En1, 5-(benzyloxy)-N-(4,4-difluoropyrrolidin-3-yl)-2-methyl-2H-indazole-3-carboxamide], the IC50 is above 20000 nM.
With `Cn1nc2ccc(OCc3ccccc3)cc2c1C(=O)NC1CNCC1(F)F` (single isomer, unassigned) [Cpd 002 - En2, 5-(benzyloxy)-N-(4,4-difluoropyrrolidin-3-yl)-2-methyl-2H-indazole-3-carboxamide], the IC50 was in the range of 1000 to 20000 nM.
For `Cn1nc2ccc(OCc3cccnc3C(F)(F)F)cc2c1C(=O)NC1CCNCC1(F)F` (single isomer, unassigned) [Cpd 003 - En1] the value was below 1000 nM; for `Cn1nc2ccc(OCc3cccnc3C(F)(F)F)cc2c1C(=O)NC1CCNCC1(F)F` (single isomer, unassigned) [Cpd 003 - En2], 1000 to 20000 nM.
As to `Cn1nc2ccc(OCc3cccnc3C(F)(F)F)cc2c1C(=O)N[C@@H]1COC[C@@H]1O` (single isomer, unassigned) [Cpd 010 - Dia1], the IC50 fell in the range of 1000 to 20000 nM.
For `Cn1nc2ccc(OCc3cccnc3C(F)(F)F)cc2c1C(=O)N[C@@H]1COC[C@@H]1O` (single isomer, unassigned) [Cpd 010 - Dia2] the value was 1000 to 20000 nM.
The compound `Cn1nc2ccc(OCc3ccccc3)cc2c1C(=O)N[C@@H]1COC[C@H]1O` (single isomer, unassigned) [Cpd 011 - Dia1] yielded an IC50 of 1000 to 20000 nM.
For `Cn1nc2ccc(OCc3ccccc3)cc2c1C(=O)N[C@@H]1COC[C@H]1O` (single isomer, unassigned) [Cpd 011 - Dia2] the value was 1000 to 20000 nM; for `Cn1nccc1COc1ccc2nn(C)c(C(=O)NC3COCC3O)c2c1` (single isomer, unassigned) [Cpd 056 - Dia1], 1000 to 20000 nM.
For `Cn1nccc1COc1ccc2nn(C)c(C(=O)NC3COCC3O)c2c1` (single isomer, unassigned) [Cpd 056 - Dia2] the value was above 20000 nM; for `Cc1ncsc1COc1ccc2nn(C)c(C(=O)NC3COCC3O)c2c1` (single isomer, unassigned) [Cpd 080 - Dia1], 1000 to 20000 nM; for `Cc1ncsc1COc1ccc2nn(C)c(C(=O)NC3COCC3O)c2c1` (single isomer, unassigned) [Cpd 080 - Dia2], above 20000 nM.
As for `Cn1nc2ccc(OCc3ccccn3)cc2c1C(=O)NC1CCNCC1(F)F` (single isomer, unassigned) [Cpd 128 - En1], the concentration for half-maximal inhibition (IC50) fell in the range of 1000 to 20000 nM.
The compound `Cn1nc2ccc(OCc3ccccn3)cc2c1C(=O)NC1CCNCC1(F)F` (single isomer, unassigned) [Cpd 128 - En2] displayed an IC50 above 20000 nM.
To `Cc1ncsc1COc1ccc2nn(C)c(C(=O)NC3CCNCC3(F)F)c2c1` (single isomer, unassigned) [Cpd 132 - En1] belongs 1000 to 20000 nM; to `Cc1ncsc1COc1ccc2nn(C)c(C(=O)NC3CCNCC3(F)F)c2c1` (single isomer, unassigned) [Cpd 132 - En2], 1000 to 20000 nM.
For `Cc1ncsc1COc1ccc2nn(C)c(C(=O)NC(C)(CO)C(N)=O)c2c1` (single isomer, unassigned) [Cpd 151 - En1] the value was below 1000 nM; for `Cc1ncsc1COc1ccc2nn(C)c(C(=O)NC(C)(CO)C(N)=O)c2c1` (single isomer, unassigned) [Cpd 151 - En2], 1000 to 20000 nM; for `Cn1nccc1COc1ccc2nn(C)c(C(=O)NC(C)(CO)C(N)=O)c2c1` (single isomer, unassigned) [Cpd 154 - En1], above 20000 nM.
To `Cn1nccc1COc1ccc2nn(C)c(C(=O)NC(C)(CO)C(N)=O)c2c1` (single isomer, unassigned) [Cpd 154 - En2] belongs below 1000 nM; to `Cn1ccc(COc2ccc3nn(C)c(C(=O)NC(C)(CO)C(N)=O)c3c2)n1` (single isomer, unassigned) [Cpd 155 - En1], above 20000 nM.
In the case of `Cn1ccc(COc2ccc3nn(C)c(C(=O)NC(C)(CO)C(N)=O)c3c2)n1` (single isomer, unassigned) [Cpd 155 - En2], the IC50 lay in the range of 1000 to 20000 nM.
For `Cc1ncc(COc2ccc3nn(C)c(C(=O)NC(C)(CO)C(N)=O)c3c2)s1` (single isomer, unassigned) [Cpd 157 - En1, 3-hydroxy-2-methyl-2-({2-methyl-5-[(2-methyl-1,3-thiazol-5-yl)methoxy]-2H-indazol-3-yl}formamido)propanamide] the value was 1000 to 20000 nM; for `Cc1ncc(COc2ccc3nn(C)c(C(=O)NC(C)(CO)C(N)=O)c3c2)s1` (single isomer, unassigned) [Cpd 157 - En2, 3-hydroxy-2-methyl-2-({2-methyl-5-[(2-methyl-1,3-thiazol-5-yl)methoxy]-2H-indazol-3-yl}formamido)propanamide], below 1000 nM; for `Cn1nc2ccc(OCC3CCOCC3)cc2c1C(=O)NC(C)(CO)C(N)=O` (single isomer, unassigned) [Cpd 158 - En1], 1000 to 20000 nM.
For `Cn1nc2ccc(OCC3CCOCC3)cc2c1C(=O)NC(C)(CO)C(N)=O` (single isomer, unassigned) [Cpd 158 - En2] the value was above 20000 nM.
For `Cn1nc2ccc(OCC3CCC3)cc2c1C(=O)NC1(CO)CCNC1=O` (single isomer, unassigned) [Cpd 159 - En1] the value was 1000 to 20000 nM; for `Cn1nc2ccc(OCC3CCC3)cc2c1C(=O)NC1(CO)CCNC1=O` (single isomer, unassigned) [Cpd 159 - En2], below 1000 nM.
The compound `Cc1nc(COc2ccc3nn(C)c(C(=O)NC(C)(CO)C(N)=O)c3c2)cs1` (single isomer, unassigned) [Cpd 160 - En1] showed a 50% inhibitory concentration (IC50) of 1000 to 20000 nM.
For `Cc1nc(COc2ccc3nn(C)c(C(=O)NC(C)(CO)C(N)=O)c3c2)cs1` (single isomer, unassigned) [Cpd 160 - En2] the value was below 1000 nM; for `Cn1nc2ccc(OCC3CC3)cc2c1C(=O)NC1(CO)CCNC1=O` (single isomer, unassigned) [Cpd 161 - En1], below 1000 nM.
`Cn1nc2ccc(OCC3CC3)cc2c1C(=O)NC1(CO)CCNC1=O` (single isomer, unassigned) [Cpd 161 - En2] returned an IC50 above 20000 nM.
Take `Cn1nc2ccc(OCc3ccccn3)cc2c1C(=O)NC(C)(CO)C(N)=O` (single isomer, unassigned) [Cpd 162 - En1]: the IC50 was 1000 to 20000 nM.
For `Cn1nc2ccc(OCc3ccccn3)cc2c1C(=O)NC(C)(CO)C(N)=O` (single isomer, unassigned) [Cpd 162 - En2] the value was below 1000 nM; for `Cc1ncsc1COc1ccc2nn(C)c(C(=O)NC3(CO)CCNC3=O)c2c1` (single isomer, unassigned) [Cpd 163 - En1, N-[3-(hydroxymethyl)-2-oxopyrrolidin-3-yl]-2-methyl-5-[(4-methyl-1,3-thiazol-5-yl)methoxy]-2H-indazole-3-carboxamide], below 1000 nM; for `Cc1ncsc1COc1ccc2nn(C)c(C(=O)NC3(CO)CCNC3=O)c2c1` (single isomer, unassigned) [Cpd 163 - En2, N-[3-(hydroxymethyl)-2-oxopyrrolidin-3-yl]-2-methyl-5-[(4-methyl-1,3-thiazol-5-yl)methoxy]-2H-indazole-3-carboxamide], 1000 to 20000 nM.

Source of the values: patent US20250376461A1, “INDAZOLE DERIVATIVES FOR TREATING TRPM3-MEDIATED DISORDERS” (Katholieke Universiteit Leuven, priority 2022, published 2025).
